Assay results taken from PubChem BioAssay (NCI).
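Assay format: 96-well plates, 48-hour exposure. The concentration for full growth arrest is given as TGI.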

Experiments:
Experiment in all cases: NCI tumour cell line growth inhibition, 48 h
[1] = system: UACC-257 melanoma
[2] = system: CAKI-1 renal
[3] = system: NCI-H522 lung
[4] = system: UACC-62 melanoma
[5] = system: HOP-92 NSCLC
[6] = system: OVCAR-8 ovarian
[7] = system: M14 melanoma
[8] = system: OVCAR-5 ovarian
[9] = system: OVCAR-3 ovarian
[10] = system: EKVX NSCLC
[11] = system: SK-MEL-28 melanoma
[12] = system: SF-539 CNS
[13] = system: KM12 colon
[14] = system: MCF7 breast
[15] = system: IGROV1 ovarian
[16] = system: SF-268 CNS
[17] = system: HCC-2998 colon
[18] = system: ACHN renal
[19] = system: SR leukemia
[20] = system: UO-31 renal
[21] = system: K-562 leukemia
[22] = system: RPMI-8226 leukemia
[23] = system: MOLT-4 leukemia
[24] = system: SN12C renal
[25] = system: MDA-MB-435
[26] = system: SNB-19 CNS
[27] = system: SNB-75 CNS
[28] = system: NCI-H460 lung
[29] = system: HCT-15 colon
[30] = system: HCT-116 colon
[31] = system: LOX IMVI melanoma
[32] = system: SW-620 colon
[33] = system: HT29 colon
[34] = system: HL-60(TB) leukemia
[35] = system: T-47D breast
[36] = system: 786-0 renal
[37] = system: NCI/ADR-RES ovarian
[38] = system: OVCAR-4 ovarian
[39] = system: BT-549 breast
[40] = system: CCRF-CEM leukemia
[41] = system: DU-145 prostate
[42] = system: A498 renal
[43] = system: NCI-H23 lung
[44] = system: RXF 393 renal
[45] = system: MALME-3M melanoma
[46] = system: COLO 205 colon
[47] = system: A549 NSCLC
[48] = system: HS 578T breast
[49] = system: SK-MEL-2 melanoma
[50] = system: PC-3 prostate
[51] = system: SK-MEL-5 melanoma
[52] = system: SF-295 CNS
[53] = system: MDA-N
[54] = system: NCI-H226 lung
[55] = system: SK-OV-3 ovarian
[56] = system: HOP-62 NSCLC
[57] = system: TK-10 renal
[58] = system: U251 CNS

Measured: TGI

CCC(=O)Nc1cccc(NC(=O)c2c(Cl)c(Cl)c(Cl)c(Cl)c2-c2nc3ccccc3[nH]2)c1
66.5 µM: [5]
not listed: [54] | [55] | [56] | [57] | [58]
> 100 µM: all other assays above

CCOc1cc(NC(C)=O)ccc1C(=O)NNS(=O)(=O)c1ccc(Cl)cc1Cl
26.6 µM: [22]
23.1 µM: [53]
45.1 µM: [25]
21.4 µM: [21]
22 µM: [23]
not listed: [57] | [58]
> 50 µM: all other assays above

O=C1CC(=O)c2c(N3CCCC3)sc(N3CCCC3)c21
> 100 µM: all assays above
